According to US6339042B1, “Herbicidal N-cyclohexadienyl heteroaryloxyacetamides” (American Cyanamid Co., priority 1999, dated 2002):

What was measured:
Settings in all cases: three weeks after treatment
Lolium perenne [1] = test: Pre-emergence herbicidal evaluation, LOLPE; assay type: in vivo
Excerpt: (§1) The treated pots are then placed on greenhouse benches, watered and cared for in accordance with conventional greenhouse procedures.

Apera spica venti [2] = test: Pre-emergence herbicidal evaluation, APESV; assay type: in vivo
Excerpt: as §1

Amaranthus tuberculatus [3] = test: Post-emergence herbicidal evaluation, AMATA; assay type: in vivo
Setaria viridis [4] = test: Pre-emergence herbicidal evaluation, SETVI; assay type: in vivo
Excerpt: as §1

Alopecurus myosuroides [5] = test: Pre-emergence herbicidal evaluation, ALOMY; assay type: in vivo
Excerpt: as §1

Glycine max [6] = test: Pre-emergence herbicidal evaluation, GLXMA; assay type: in vivo
Excerpt: as §1

Glycine max [7] = test: Post-emergence herbicidal evaluation, GLXMA
Amaranthus tuberculatus [8] = test: Pre-emergence herbicidal evaluation, AMATA; assay type: in vivo
Excerpt: as §1

Hordeum vulgare [9] = test: Post-emergence herbicidal evaluation, HORVW
Oryza sativum [10] = test: Pre-emergence herbicidal evaluation, ORYSA; assay type: in vivo
Excerpt: as §1

Hordeum vulgare [11] = test: Pre-emergence herbicidal evaluation, HORVW; assay type: in vivo
Excerpt: as §1

Echinochloa crus-galli [12] = test: Post-emergence herbicidal evaluation, ECHCG
Setaria viridis [13] = test: Post-emergence herbicidal evaluation, SETVI
Method: (§2) The compounds of the invention are tested for pre- and post-emergence herbicidal activity.
(§3) Each pot is examined three weeks after treatment and phytotoxicity is assessed according to the rating system set forth below.
(§4) These acetone solutions are diluted with water and the resulting formulations applied at dosage levels equivalent of about 0.4 to 0.1 kg per hectare of test compound per pot. After spraying the plants are placed on greenhouse benches and are cared for in the usual manner, commensurate with conventional greenhouse practices.

Alopecurus myosuroides [14] = test: Post-emergence herbicidal evaluation, ALOMY
Triticum aestivum [15] = test: Pre-emergence herbicidal evaluation, TRZAW; assay type: in vivo
Excerpt: as §1

Lolium perenne [16] = test: Post-emergence herbicidal evaluation, LOLPE
Method: as §3, §4

Apera spica venti [17] = test: Post-emergence herbicidal evaluation, APESV
Galium aparine [18] = test: Post-emergence herbicidal evaluation, GALAP
Method: as §2, §3, §4

Galium aparine [19] = test: Pre-emergence herbicidal evaluation, GALAP; assay type: in vivo
Excerpt: as §1

Oryza sativum [20] = test: Post-emergence herbicidal evaluation, ORYSA
Zea mays [21] = test: Pre-emergence herbicidal evaluation, ZEAMX; assay type: in vivo
Excerpt: as §1

Triticum aestivum [22] = test: Post-emergence herbicidal evaluation, TRZAW
Method: as §3, §4

Zea mays [23] = test: Post-emergence herbicidal evaluation, ZEAMX
Echinochloa crus-galli [24] = test: Pre-emergence herbicidal evaluation, ECHCG; assay type: in vivo
Excerpt: as §1

CC1=CC(N(C(=O)COc2nnc(C(F)(F)F)s2)C(C)C)=CC(C)(C)C1 [Example 4]
phytotoxicity rating LOLPE (Lolium perenne [1]; 0.100 kg/ha): 8 (8 - Approaching complete kill) | phytotoxicity rating LOLPE (Lolium perenne [1]; 0.200 kg/ha): 9 (9 - Complete kill) | phytotoxicity rating LOLPE (Lolium perenne [1]; 0.400 kg/ha): 9 (9 - Complete kill) | phytotoxicity rating LOLPE (Lolium perenne [1]; 0.800 kg/ha): 9 (9 - Complete kill) | phytotoxicity rating APESV (Apera spica venti [2]; 0.100 kg/ha): 9 (9 - Complete kill) | phytotoxicity rating APESV (Apera spica venti [2]; 0.200 kg/ha): 9 (9 - Complete kill) | phytotoxicity rating APESV (Apera spica venti [2]; 0.400 kg/ha): 9 (9 - Complete kill) | phytotoxicity rating APESV (Apera spica venti [2]; 0.800 kg/ha): 9 (9 - Complete kill) | phytotoxicity rating AMATA (Amaranthus tuberculatus [3]; 0.100 kg/ha): 1 (1 - Trace effect) | phytotoxicity rating AMATA (Amaranthus tuberculatus [3]; 0.200 kg/ha): 1 (1 - Trace effect) | phytotoxicity rating AMATA (Amaranthus tuberculatus [3]; 0.400 kg/ha): 4 (4 - Injury) | phytotoxicity rating SETVI (Setaria viridis [4]; 0.100 kg/ha): 6 (6 - Herbicidal effect) | phytotoxicity rating SETVI (Setaria viridis [4]; 0.200 kg/ha): 6 (6 - Herbicidal effect) | phytotoxicity rating SETVI (Setaria viridis [4]; 0.400 kg/ha): 6 (6 - Herbicidal effect) | phytotoxicity rating SETVI (Setaria viridis [4]; 0.800 kg/ha): 9 (9 - Complete kill) | phytotoxicity rating ALOMY (Alopecurus myosuroides [5]; 0.100 kg/ha): 7 (7 - Good herbicidal effect) | phytotoxicity rating ALOMY (Alopecurus myosuroides [5]; 0.200 kg/ha): 7 (7 - Good herbicidal effect) | phytotoxicity rating ALOMY (Alopecurus myosuroides [5]; 0.400 kg/ha): 7 (7 - Good herbicidal effect) | phytotoxicity rating ALOMY (Alopecurus myosuroides [5]; 0.800 kg/ha): 9 (9 - Complete kill) | phytotoxicity rating GLXMA (Glycine max [6]; 0.100 kg/ha): 0 (0 - No effect) | phytotoxicity rating GLXMA (Glycine max [6]; 0.200 kg/ha): 0 (0 - No effect) | phytotoxicity rating GLXMA (Glycine max [6]; 0.400 kg/ha): 0 (0 - No effect) | phytotoxicity rating GLXMA (Glycine max [6]; 0.800 kg/ha): 1 (1 - Trace effect) | phytotoxicity rating GLXMA (Glycine max [7]; 0.100 kg/ha): 2 (2 - Slight effect) | phytotoxicity rating GLXMA (Glycine max [7]; 0.200 kg/ha): 4 (4 - Injury) | phytotoxicity rating GLXMA (Glycine max [7]; 0.400 kg/ha): 6 (6 - Herbicidal effect) | phytotoxicity rating AMATA (Amaranthus tuberculatus [8]; 0.100 kg/ha): 6 (6 - Herbicidal effect) | phytotoxicity rating AMATA (Amaranthus tuberculatus [8]; 0.200 kg/ha): 6 (6 - Herbicidal effect) | phytotoxicity rating AMATA (Amaranthus tuberculatus [8]; 0.400 kg/ha): 8 (8 - Approaching complete kill) | phytotoxicity rating AMATA (Amaranthus tuberculatus [8]; 0.800 kg/ha): 8 (8 - Approaching complete kill) | phytotoxicity rating HORVW (Hordeum vulgare [9]; 0.100 kg/ha): 0 (0 - No effect) | phytotoxicity rating HORVW (Hordeum vulgare [9]; 0.200 kg/ha): 1 (1 - Trace effect) | phytotoxicity rating HORVW (Hordeum vulgare [9]; 0.400 kg/ha): 2 (2 - Slight effect) | phytotoxicity rating ORYSA (Oryza sativum [10]; 0.100 kg/ha): 3 (3 - Moderate effect) | phytotoxicity rating ORYSA (Oryza sativum [10]; 0.200 kg/ha): 4 (4 - Injury) | phytotoxicity rating ORYSA (Oryza sativum [10]; 0.400 kg/ha): 5 (5 - Definite injury) | phytotoxicity rating ORYSA (Oryza sativum [10]; 0.800 kg/ha): 5 (5 - Definite injury) | phytotoxicity rating HORVW (Hordeum vulgare [11]; 0.100 kg/ha): 0 (0 - No effect) | phytotoxicity rating HORVW (Hordeum vulgare [11]; 0.200 kg/ha): 0 (0 - No effect) | phytotoxicity rating HORVW (Hordeum vulgare [11]; 0.400 kg/ha): 1 (1 - Trace effect) | phytotoxicity rating HORVW (Hordeum vulgare [11]; 0.800 kg/ha): 4 (4 - Injury) | phytotoxicity rating ECHCG (Echinochloa crus-galli [12]; 0.100 kg/ha): 3 (3 - Moderate effect) | phytotoxicity rating ECHCG (Echinochloa crus-galli [12]; 0.200 kg/ha): 6 (6 - Herbicidal effect) | phytotoxicity rating ECHCG (Echinochloa crus-galli [12]; 0.400 kg/ha): 6 (6 - Herbicidal effect) | phytotoxicity rating SETVI (Setaria viridis [13]; 0.100 kg/ha): 3 (3 - Moderate effect) | phytotoxicity rating SETVI (Setaria viridis [13]; 0.200 kg/ha): 5 (5 - Definite injury) | phytotoxicity rating SETVI (Setaria viridis [13]; 0.400 kg/ha): 5 (5 - Definite injury) | phytotoxicity rating ALOMY (Alopecurus myosuroides [14]; 0.100 kg/ha): 4 (4 - Injury) | phytotoxicity rating ALOMY (Alopecurus myosuroides [14]; 0.200 kg/ha): 8 (8 - Approaching complete kill) | phytotoxicity rating ALOMY (Alopecurus myosuroides [14]; 0.400 kg/ha): 8 (8 - Approaching complete kill) | phytotoxicity rating TRZAW (Triticum aestivum [15]; 0.100 kg/ha): 0 (0 - No effect) | phytotoxicity rating TRZAW (Triticum aestivum [15]; 0.200 kg/ha): 0 (0 - No effect) | phytotoxicity rating TRZAW (Triticum aestivum [15]; 0.400 kg/ha): 1 (1 - Trace effect) | phytotoxicity rating TRZAW (Triticum aestivum [15]; 0.800 kg/ha): 4 (4 - Injury) | phytotoxicity rating LOLPE (Lolium perenne [16]; 0.100 kg/ha): 5 (5 - Definite injury) | phytotoxicity rating LOLPE (Lolium perenne [16]; 0.200 kg/ha): 7 (7 - Good herbicidal effect) | phytotoxicity rating LOLPE (Lolium perenne [16]; 0.400 kg/ha): 8 (8 - Approaching complete kill) | phytotoxicity rating APESV (Apera spica venti [17]; 0.100 kg/ha): 2 (2 - Slight effect) | phytotoxicity rating APESV (Apera spica venti [17]; 0.200 kg/ha): 8 (8 - Approaching complete kill) | phytotoxicity rating APESV (Apera spica venti [17]; 0.400 kg/ha): 8 (8 - Approaching complete kill) | phytotoxicity rating GALAP (Galium aparine [18]; 0.100 kg/ha): 0 (0 - No effect) | phytotoxicity rating GALAP (Galium aparine [18]; 0.200 kg/ha): 0 (0 - No effect) | phytotoxicity rating GALAP (Galium aparine [18]; 0.400 kg/ha): 2 (2 - Slight effect) | phytotoxicity rating GALAP (Galium aparine [19]; 0.100 kg/ha): 0 (0 - No effect) | phytotoxicity rating GALAP (Galium aparine [19]; 0.200 kg/ha): 0 (0 - No effect) | phytotoxicity rating GALAP (Galium aparine [19]; 0.400 kg/ha): 2 (2 - Slight effect) | phytotoxicity rating GALAP (Galium aparine [19]; 0.800 kg/ha): 3 (3 - Moderate effect) | phytotoxicity rating ORYSA (Oryza sativum [20]; 0.100 kg/ha): 0 (0 - No effect) | phytotoxicity rating ORYSA (Oryza sativum [20]; 0.200 kg/ha): 1 (1 - Trace effect) | phytotoxicity rating ORYSA (Oryza sativum [20]; 0.400 kg/ha): 1 (1 - Trace effect) | phytotoxicity rating ZEAMX (Zea mays [21]; 0.100 kg/ha): 0 (0 - No effect) | phytotoxicity rating ZEAMX (Zea mays [21]; 0.200 kg/ha): 1 (1 - Trace effect) | phytotoxicity rating ZEAMX (Zea mays [21]; 0.400 kg/ha): 1 (1 - Trace effect) | phytotoxicity rating ZEAMX (Zea mays [21]; 0.800 kg/ha): 4 (4 - Injury) | phytotoxicity rating TRZAW (Triticum aestivum [22]; 0.100 kg/ha): 0 (0 - No effect) | phytotoxicity rating TRZAW (Triticum aestivum [22]; 0.200 kg/ha): 1 (1 - Trace effect) | phytotoxicity rating TRZAW (Triticum aestivum [22]; 0.400 kg/ha): 3 (3 - Moderate effect) | phytotoxicity rating ZEAMX (Zea mays [23]; 0.100 kg/ha): 0 (0 - No effect) | phytotoxicity rating ZEAMX (Zea mays [23]; 0.200 kg/ha): 0 (0 - No effect) | phytotoxicity rating ZEAMX (Zea mays [23]; 0.400 kg/ha): 0 (0 - No effect) | phytotoxicity rating ECHCG (Echinochloa crus-galli [24]; 0.100 kg/ha): 6 (6 - Herbicidal effect) | phytotoxicity rating ECHCG (Echinochloa crus-galli [24]; 0.200 kg/ha): 9 (9 - Complete kill) | phytotoxicity rating ECHCG (Echinochloa crus-galli [24]; 0.400 kg/ha): 9 (9 - Complete kill) | phytotoxicity rating ECHCG (Echinochloa crus-galli [24]; 0.800 kg/ha): 9 (9 - Complete kill)
